For `Nc1nc(N2CCN(CCCC3(c4ccc(F)cc4)OCCO3)CC2)ccc1[N+](=O)[O-]`, the melting point (as a rule, the temperature of the solid-liquid transition) is 117 to 118 °C.

For `Cc1ccccc1C1=NOC2(C1)OC(=O)c1ccccc12` (stereo not drawn), the melting point fell in the range of 146 to 149 °C.

Compound `COC(=O)[C@H](Cc1ccccc1)NC(=O)N(Cc1ccccc1)NC(=O)OC(C)(C)C` returned a melting point of 71 to 73 °C.

Compound `C[Si](C)(C)OC(CCl)(Cn1cncn1)c1ccc(F)cc1F` (stereo not drawn) showed a melting point of 59 to 61 °C. Under `COc1ccc(COc2ccc(CSc3ccc(OCC(=O)O)c4c3CCC4)cc2)cc1` stands 183 to 185 °C.

Take `CC(O)c1cc2c3ccccc3n(C)c(=O)n2n1` (stereo not drawn): the melting point lay in the range of 169 to 172 °C. In turn, `COC(=O)c1nc(C)c(-c2ccncc2C)s1` came in with a melting point of 95.5 to 96.3 °C. The compound `CCCN(c1ccncc1)N1C(=O)C2(CCN(C)CC2)c2ccccc21` returned a melting point of 125 to 127 °C. `COc1ccccc1Oc1cccc2c1NC(=O)C2SC` (stereo not drawn): the melting point turned out to be 114 °C.

`CN(C)C=C(C#N)C#N` registered a melting point of 81 to 82 °C. With `C[C@@H](O)Cn1ncc2ccc(O)c(Br)c21` the figure was 134 to 136 °C; with `O=C1NCc2c(-c3ccccc3)cccc2N1Cc1ccccc1`, 198 to 199 °C. `Cc1c(C=O)c2cnnc(OCc3ccccc3)c2n1Cc1ccccc1` displayed a melting point of 147 to 149 °C. With `Cc1ccc(F)c2c1NC(=O)C21COc2cc3c(cc21)CCO3` (stereo not drawn) the figure was greater than 250 °C; with `CC1CN(C(=O)Nc2ccc(Cl)cc2)N=C1c1ccc(Cl)cc1` (stereo not drawn), 139 to 140 °C; with `Nc1nc(-c2ccccc2)c(-c2ccnc(Nc3ccccc3)n2)s1`, 196 to 197 °C. With `O=C(O)c1ccc(NC(=O)[C@H](Cc2ccc(-c3ccccc3)cc2)NCP(=O)(O)O)cc1` the figure was 270 to 274 °C.

The compound `CCc1nc2c(N)nc3ccccc3c2n1CCS(C)(=O)=O` had a melting point of 222 to 225 °C. Under `Cc1nc2c(OCc3cc(N(C)S(C)(=O)=O)ccc3Cl)cccn2c1Br` stands 158 to 162 °C. For `Cc1cc(O)c2ccccc2c1OCc1ccccc1`, the melting point lay within 159 to 161 °C. Under `OCc1cc2cnc(Cl)nc2n1C1CCCC1` stands 174 to 176 °C. With `COCC1CN(c2ccc(C3CCN(C(=O)C=Cc4ccccc4)CC3)cc2)C(=O)O1` (racemic) the figure was 136 to 138 °C; with `CCCn1c(COCC)nc2c(N)nc3ccc(OCCCCCCNS(C)(=O)=O)cc3c21`, 164 to 167 °C. Under `O=C(N[C@H](Cc1ccc(C(F)(F)F)cc1)[C@@H](O)c1ccc(F)cc1)c1cccc(Oc2ccccc2)c1` (racemic) stands 144 to 145 °C. Compound `CC(CF)(CF)C1=NC(c2ccc(C(C)(C)C)cc2)CO1` (stereo not drawn) yielded a melting point of 62 to 63 °C. `O=C(c1ccc(F)cc1)c1cc2ccsc2s1` gave a melting point of 113 °C. Consider `CC(C)(C)c1cc(C#Cc2ccc(NS(C)(=O)=O)cc2Cl)cc(N2CCC(=O)NC2=O)c1`, for which the melting point was 278 to 280 °C.

`CSC(C)(C(=O)O)c1cccc(Oc2ccccc2)c1` (stereo not drawn): the melting point lay within 87 to 88 °C. Under `O=C(O)c1csnc1-c1ccc(Cl)cc1` stands 182 °C; under `Cc1c(CO)c(CO)c2sc3ccccc3n12`, 138 to 139 °C. With `CC(=O)OCCn1nc(-c2cc(C(C)(C)C)cc(C(C)(C)C)c2)c2cccnc21` the figure was 115 to 116 °C.

For `CCNc1nc(NC)cc(NS(=O)(=O)c2ccc(N)cc2)n1`, the melting point fell in the range of 261 to 263 °C. With `Cc1ccccc1-c1ccc(C(=O)N2Cc3ccc(C(=O)C(Cl)(Cl)Cl)n3Cc3ccccc32)cc1C` the figure was 212 to 214 °C; with `O=[N+]([O-])c1cnn(-c2c(Cl)cc(C(F)(F)F)c(Cl)c2Cl)c1Br`, 97 to 99 °C; with `Nc1nc2c(ncn2/C=C2/CC2(CO)CO)c(=O)[nH]1`, greater than 300 °C. Turning to `Clc1nc(NCCCCC=C(c2ccccc2)c2ccccc2)c2nc[nH]c2n1`, the melting point lay in the range of 206 to 207 °C. On to `Cc1c(Br)cnc(NC(=O)C2CC2)c1[N+](=O)[O-]`, for which the melting point is 205 °C. As to `COc1cc(C(=O)Cl)ccc1OCCCCl`, the melting point lay within 60 to 63 °C. For `CS(=O)(=O)c1ncc(F)c(NCc2ccccc2F)n1`, the melting point was 105 to 107 °C. With `COc1ccc(CCN)cc1OCCC(c1ccccc1)(c1ccccc1)c1ccccc1` the figure was 111 to 112 °C. Turning to `COc1ccc(S(=O)(=O)C2(C(=O)O)CCN(Cc3ccc(F)cc3)CC2)cc1`, the melting point is 154 °C. With `N#CC1=C(NN)C(=O)NC1=O` the figure was greater than 350 °C; with `O=c1c2c(nc3ccc(Cl)cn13)C(=Cc1ccccc1Cl)CC2`, 249 to 250 °C; with `CCOC(=O)c1cnn(-c2ccc(Cl)cc2)c1C`, 55 to 56 °C. Consider `O=c1ccn([C@H]2C=C[C@@H](O)C2)c(=O)[nH]1` (racemic), for which the melting point was 163 to 164 °C. With `COCc1cnc2c(NC(=O)c3c(Cl)cccc3Cl)cccc2c1-n1ccnc1` the figure was 145 to 150 °C; with `CCCCOc1ccc(CCCOc2c(CC(=O)O)cccc2OC)c(Oc2ccc(C(F)(F)F)cn2)c1`, 69 to 70 °C. Compound `CCCCCCCCCCCCCc1c(C(F)(F)F)noc1NS(=O)(=O)c1ccc(-c2ccccc2)cc1` displayed a melting point of 115 to 116 °C.

Turning to `O=C(CCCc1cccnc1)N1CCC(CC(c2ccc(F)cc2)c2ccc(F)cc2)CC1`, the melting point lay in the range of 108 to 110 °C. As for `CCCCCCCCCCCCCCCC(=O)OCc1cc2c(s1)-c1ccccc1OC2c1ccccc1` (stereo not drawn), the melting point was 64 to 65 °C. Under `O=C(NCC1CCCCCC1)NCC1CCCCCC1` stands 106 to 108 °C. In turn, `CCc1nn(CCOC(N)=O)c(CC)c1Cc1cc(Cl)cc(Cl)c1` yielded a melting point of 145 to 147 °C. Under `CCOC(=O)C(Oc1ccc(C(=O)CBr)cc1)C(=O)OCC` stands 55 to 58 °C; under `Cc1cc2c(cc1Cl)NC(=O)C2c1ccccc1Cl` (stereo not drawn), 186 °C. `CN(C)Cc1cccc(-c2cc(-c3ccccc3O)nc(NC(=O)c3cccs3)c2C#N)c1`: the melting point was 225 to 226 °C.

`COC(=O)c1ccc2cc(-c3ccc(CO)c(C45CC6CC(CC(C6)C4)C5)c3)ccc2c1` gave a melting point of 212 °C.

On to `CC=CCn1c(C)c(CC)c2cnnc(OCc3ccc(F)cc3)c21`, for which the melting point was 78 to 83 °C.

As for `CN1CCN(NC(=O)Nc2cccc3c2C(=O)c2c-3n[nH]c2-c2ccc(N(C)C)cc2)CC1`, the melting point is greater than 300 °C. The compound `CCOC(=O)c1cnoc1-c1ccc(Cl)cc1` gave a melting point of 58 to 60 °C.

In turn, `O=C(O)Cc1ccc2c(c1)CC(CNS(=O)(=O)c1ccccc1)C2` (stereo not drawn) had a melting point of 140 to 141 °C. In turn, `COc1ccccc1N1CCN(C[C@@H](C)N(C(=O)c2ccccc2)C(=O)c2ccccc2)CC1` registered a melting point of 115 to 120 °C. Under `CC(C)(C)OC(=O)NCCC(=O)NCC(C(=O)OCc1ccccc1)c1ccccc1` (stereo not drawn) stands 84.5 to 86 °C; under `CSc1ccc(-c2cc(-n3ccc(C(F)(F)F)n3)c3ccccc3n2)cc1`, 116 to 118 °C.

Source of the values: a melting point compilation (Tetko et al.; mined from patent text by program, amines drawn as free bases though some values may be those of a salt).
